For this assay, the target named is T1, hVR1 (Homo sapiens, UniProt Q8NER1).
T1 construct: expressed in transfected cells
The experiment in a line: hVR1 FLIPR (Fluorometric Image Plate Reader) screening assay, IC50 determination. In kind it is cell-based. The conditions noted are these: transfected CHO cells stably expressing hVR1. The method, then:
1. hVR1 FLIPR (Fluorometric Image Plate Reader) Screening Assay
Transfected CHO cells, stably expessing hVR1 (15,000 cells/well) are seeded in 50 ul media in a black clear bottom 384 plate (Greiner) and grown in a humidified incubator (37° C., 2% CO2), 24-30 hours prior to experiment.
Subsequently, the media is removed from the cell plate by inversion and 2 μM Fluo-4 is added using a multidrop (Labsystems). Following the 40 minutes dye incubation in the dark at 37° C. and 2% CO2, the extracellular dye present is washed away using an EMBLA (Scatron), leaving the cells in 40 ul of assay buffer (1×HBSS, 10 mM D-Glucose, 1 mM CaCl2, 10 mM HEPES, 10×7.5% NaHCO3 and 2.5 mM Probenecid).
FLIPR Assay—IC50 Determination Protocol
For IC50 determinations the fluorescence is read using FLIPR filter 1 (em […]). A cellular baseline recording is taken for 30 seconds, followed by a 20 μl addition of 10, titrated half-log concentrations of the test compound, yielding cellular concentration ranging from 3 μM to 0.1 nM. Data is collected every 2 seconds for a further 5 minutes prior to the addition of a VR1 agonist solution: either 50 nM solution of capsaicin or MES (2-[N-morpholino) ethanesulfonic acid) buffer (pH 5.2), by the FLIPR pipettor. The FLIPR continues to collect data for a further 4 minutes. Compounds having antagonistic properties against the hVR1 will inhibit the increase in intracellular calcium in response to the capsaicin addition. This consequently leading to a reduction in fluorescence signal and providing a reduced fluorescence reading, compared with no compound, buffer controls. Data is exported by the FLIPR program as a sum of fluorescence calculated under the curve upon the addition of capsaicin. Maximum inhibition, Hill slope and IC50 data for each compound are generated.

The structures appear in SMILES notation.

T1 sequence (Q8NER1 whole entry): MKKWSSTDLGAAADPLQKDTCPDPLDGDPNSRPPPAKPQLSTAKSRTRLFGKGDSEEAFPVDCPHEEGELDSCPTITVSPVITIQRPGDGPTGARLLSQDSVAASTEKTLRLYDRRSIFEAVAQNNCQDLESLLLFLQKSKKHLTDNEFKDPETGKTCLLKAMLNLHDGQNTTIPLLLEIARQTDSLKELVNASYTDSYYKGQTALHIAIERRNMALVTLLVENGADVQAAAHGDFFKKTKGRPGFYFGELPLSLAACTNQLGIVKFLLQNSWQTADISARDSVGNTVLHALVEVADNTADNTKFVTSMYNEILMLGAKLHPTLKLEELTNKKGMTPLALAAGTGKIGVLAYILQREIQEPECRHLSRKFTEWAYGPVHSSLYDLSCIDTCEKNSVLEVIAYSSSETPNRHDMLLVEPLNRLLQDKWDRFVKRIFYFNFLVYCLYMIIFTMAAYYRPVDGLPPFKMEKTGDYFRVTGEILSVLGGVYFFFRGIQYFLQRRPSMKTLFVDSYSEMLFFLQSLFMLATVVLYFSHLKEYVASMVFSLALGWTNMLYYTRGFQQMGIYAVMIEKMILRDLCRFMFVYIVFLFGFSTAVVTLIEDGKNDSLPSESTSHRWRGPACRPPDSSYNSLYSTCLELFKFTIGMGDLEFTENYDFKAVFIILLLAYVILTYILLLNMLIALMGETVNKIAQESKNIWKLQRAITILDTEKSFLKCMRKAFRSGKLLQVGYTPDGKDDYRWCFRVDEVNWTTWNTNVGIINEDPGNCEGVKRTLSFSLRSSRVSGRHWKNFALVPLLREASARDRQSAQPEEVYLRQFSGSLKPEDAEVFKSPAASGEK

Usually IC50 stands for the concentration that gives 50% inhibition. Where the note is “agonist capsaicin”, `CC(O)c1nc2cc(NC(=O)c3ccc(C(C)(C)C)cc3)ccc2s1` (centres unmarked) [Example 71, 4-tert-Butyl-N-[2-(1-hydroxyethyl)-1,3-benzothiazol-5-yl]benzamide] gave a concentration for half-maximal inhibition (IC50) of 200 nM.

For `CC(C)Oc1ccc(C(=O)Nc2ccc3sc(CO)nc3c2)cc1` [Example 19, N-[2-(Hydroxymethyl)-1,3-benzothiazol-5-yl]-4-isopropoxybenzamide], the IC50 runs as follows: (agonist H+/MES buffer (pH 5.2)) 45 nM; (agonist capsaicin) 50 nM.

`O=C(Nc1ccc2sc(CO)nc2c1)c1ccc(Br)cc1` [Example 2, 4-Bromo-N-[2-(hydroxymethyl)-1,3-benzothiazol-5-yl]benzamide]: the half-inhibitory concentration (IC50) runs as follows: (agonist H+/MES buffer (pH 5.2)) 60 nM; (agonist capsaicin) 10 nM.

Source of the values: patent US20060223868A1, “Heterocyclic amides exhibiting and inhibitory activity at the vanilloid receptor 1(vr1)” (AstraZeneca AB, priority 2003, published 2006).
